Results from PMC6008465 (British Journal of Cancer, 2018).

System: patients with advanced solid tumours
Test: Phase 1 Part A (dose escalation): safety, DLT, MTD
Assay type: in vivo, human
Conditions: Part A
Description: The primary objectives of this phase 1 study were to evaluate the safety, tolerability, and MTD of once-weekly (Schedule I) and twice-weekly (Schedule II) dosing. Secondary objectives included evaluation of the PK profile of E6201. […] Toxicity was managed by dose interruption, reduction, and/or discontinuation. Only Cycle 1 adverse events (AEs) were evaluable as DLTs. Based on AEs reported at 480 mg/m^2 and 400 mg/m^2, the protocol was amended to include up to 6 additional toxicity-evaluable patients at 320 mg/m^2, to confirm this as the MTD. All ongoing patients could continue at 320 mg/m^2, regardless of initial starting dose.
Safety was assessed by monitoring AEs, serious AEs (SAEs), laboratory parameters, vital signs, 12-lead electrocardiograms (ECGs), Eastern Cooperative Oncology Group performance status, and symptom-directed physical and neurologic examination findings. AEs were graded by investigators based on the National Cancer Institute Common Terminology Criteria for Adverse Events, version 3.[16]

CCNc1cc(O)c2c(c1)/C=C/C[C@H](O)[C@H](O)C(=O)/C=C\[C@@H](C)[C@H](C)OC2=O [E6201, (3S,4R,5Z,8S,9S,11E)-14-(ethylamino)-8,9,16-trihydroxy-3,4-dimethyl-3,4,9,19-tetrahydro-1H-2-benzoxacyclotetradecine-1,7 (8H)-dione]
Fatigue TEAE incidence, G≥3 (320 mg/m^2 (n=7)): 1 (14.3) n (%) | Hypokalemia TEAE incidence, All grades (320 mg/m^2 (n=7)): 2 (28.6) n (%) | Hypokalemia TEAE incidence, G≥3 (320 mg/m^2 (n=7)): 0 n (%) | Nausea TEAE incidence, All grades (320 mg/m^2 (n=7)): 5 (71.4) n (%) | Nausea TEAE incidence, G≥3 (320 mg/m^2 (n=7)): 1 (14.3) n (%) | Patients with a DLT (QTcF increase from baseline > 60 ms) and grade 2 CNS toxicities (320 mg/m^2 (n=7)): One | Peripheral edema TEAE incidence, All grades (320 mg/m^2 (n=7)): 1 (14.3) n (%) | Peripheral edema TEAE incidence, G≥3 (320 mg/m^2 (n=7)): 1 (14.3) n (%) | Vomiting TEAE incidence, All grades (320 mg/m^2 (n=7)): 4 (57.1) n (%) | Vomiting TEAE incidence, G≥3 (320 mg/m^2 (n=7)): 0 n (%) | Patients with grade 3 bradycardia (unrelated to E6201) (320 mg/m^2 group): one | Deaths (abnormal hepatic function, possibly related to E6201) (320 mg/m^2 group, post-Cycle 1): 1 patient | Patients with CNS toxicity (grade 1 dizziness) treated conservatively as a DLT (400 mg/m^2): 1 patient | Abdominal pain TEAE incidence, All grades (400 mg/m^2 (n=1)): 0 n (%) | Abdominal pain TEAE incidence, G≥3 (400 mg/m^2 (n=1)): 0 n (%) | Constipation TEAE incidence, All grades (400 mg/m^2 (n=1)): 0 n (%) | Constipation TEAE incidence, G≥3 (400 mg/m^2 (n=1)): 0 n (%) | Decreased appetite TEAE incidence, All grades (400 mg/m^2 (n=1)): 0 n (%) | Decreased appetite TEAE incidence, G≥3 (400 mg/m^2 (n=1)): 0 n (%) | Fatigue TEAE incidence, All grades (400 mg/m^2 (n=1)): 0 n (%) | Fatigue TEAE incidence, G≥3 (400 mg/m^2 (n=1)): 0 n (%) | Hypokalemia TEAE incidence, All grades (400 mg/m^2 (n=1)): 1 (100) n (%) | Hypokalemia TEAE incidence, G≥3 (400 mg/m^2 (n=1)): 1 (100) n (%) | Nausea TEAE incidence, All grades (400 mg/m^2 (n=1)): 0 n (%) | Nausea TEAE incidence, G≥3 (400 mg/m^2 (n=1)): 0 n (%) | Peripheral edema TEAE incidence, All grades (400 mg/m^2 (n=1)): 0 n (%) | Peripheral edema TEAE incidence, G≥3 (400 mg/m^2 (n=1)): 0 n (%) | Vomiting TEAE incidence, All grades (400 mg/m^2 (n=1)): 0 n (%) | Vomiting TEAE incidence, G≥3 (400 mg/m^2 (n=1)): 0 n (%) | Abdominal pain TEAE incidence, All grades (480 mg/m^2 (n=4)): 1 (25.0) n (%) | Abdominal pain TEAE incidence, G≥3 (480 mg/m^2 (n=4)): 0 n (%) | Constipation TEAE incidence, All grades (480 mg/m^2 (n=4)): 2 (50.0) n (%) | Constipation TEAE incidence, G≥3 (480 mg/m^2 (n=4)): 0 n (%) | Decreased appetite TEAE incidence, All grades (480 mg/m^2 (n=4)): 1 (25.0) n (%) | Decreased appetite TEAE incidence, G≥3 (480 mg/m^2 (n=4)): 0 n (%) | Fatigue TEAE incidence, All grades (480 mg/m^2 (n=4)): 2 (50.0) n (%) | Fatigue TEAE incidence, G≥3 (480 mg/m^2 (n=4)): 0 n (%) | Hypokalemia TEAE incidence, All grades (480 mg/m^2 (n=4)): 2 (50.0) n (%) | Hypokalemia TEAE incidence, G≥3 (480 mg/m^2 (n=4)): 0 n (%) | Nausea TEAE incidence, All grades (480 mg/m^2 (n=4)): 1 (25.0) n (%) | Nausea TEAE incidence, G≥3 (480 mg/m^2 (n=4)): 0 n (%) | Peripheral edema TEAE incidence, All grades (480 mg/m^2 (n=4)): 0 n (%) | Peripheral edema TEAE incidence, G≥3 (480 mg/m^2 (n=4)): 0 n (%) | Vomiting TEAE incidence, All grades (480 mg/m^2 (n=4)): 1 (25.0) n (%) | Vomiting TEAE incidence, G≥3 (480 mg/m^2 (n=4)): 0 n (%) | QTcF prolongation to >500 ms, patients (480 mg/m^2, Cycle 2): one | Patients with DLTs (480 mg/m^2, QTcF > 500 ms, grade 4 confusion, QTcF increase > 60 ms): 3 patients | Grade 3/4 ECG QT prolonged, patients (2 patients): 8.0% | Grade 3/4 abdominal pain, patients (2 patients): 8.0% | Grade 3/4 hyperbilirubinemia, patients (2 patients): 8.0% | Grade 3/4 syncope, patients (2 patients): 8.0% | Treatment-emergent SAEs other than death, patients (8 patients): 32.0% | Grade 3/4 TEAEs, patients (11 patients): 44.0% | QT prolongation reported as an AE (Grade 2/3, DLT, probably related), patients (30-min infusion, three patients): 12.0% | Patients with ≥1 TEAE assessed as treatment-related (Eleven patients): 44.0% | Abdominal pain TEAE incidence, All grades (Total (N=25)): 6 (24.0) n (%) | Abdominal pain TEAE incidence, G≥3 (Total (N=25)): 2 (8.0) n (%) | Constipation TEAE incidence, All grades (Total (N=25)): 7 (28.0) n (%) | Constipation TEAE incidence, G≥3 (Total (N=25)): 0 n (%) | Decreased appetite TEAE incidence, All grades (Total (N=25)): 5 (20.0) n (%) | Decreased appetite TEAE incidence, G≥3 (Total (N=25)): 1 (4.0) n (%) | Fatigue TEAE incidence, All grades (Total (N=25)): 7 (28.0) n (%) | Fatigue TEAE incidence, G≥3 (Total (N=25)): 1 (4.0) n (%) | Hypokalemia TEAE incidence, All grades (Total (N=25)): 7 (28.0) n (%) | Hypokalemia TEAE incidence, G≥3 (Total (N=25)): 1 (4.0) n (%) | Nausea TEAE incidence, All grades (Total (N=25)): 9 (36.0) n (%) | Nausea TEAE incidence, G≥3 (Total (N=25)): 1 (4.0) n (%) | Peripheral edema TEAE incidence, All grades (Total (N=25)): 4 (16.0) n (%) | Peripheral edema TEAE incidence, G≥3 (Total (N=25)): 1 (4.0) n (%) | Vomiting TEAE incidence, All grades (Total (N=25)): 7 (28.0) n (%) | Vomiting TEAE incidence, G≥3 (Total (N=25)): 0 n (%) | QTcF increase of 30–60 ms from baseline, patients (five patients): 20.0% | QTcF prolongation to 450–500 ms, patients (five patients across dose groups): 20.0% | QTcF increase of >60 ms from baseline, patients (two patients): 8.0% | Maximum-tolerated dose (MTD) (30-min IV infusion once-weekly for 3 weeks of a 28-day cycle): 320 mg/m^2
